From ChEMBL document CHEMBL1201862, “PubChem BioAssay data set” (2004)
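In this assay, cells in 96-well plates receive the compound at five concentrations for 48 hours. Endpoints are linearly interpolated between the surrounding concentrations. GI50 is the concentration that inhibits growth by half.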 Calls of active or inactive are those of the source. No stated cut-off is given here; in the data, active = GI50 up to about 1.1 µM and inactive = higher.

Assays:
Assay in all cases: DTP human tumour cell line panel, 48 h
CCRF-CEM = tested on: CCRF-CEM
SF-539 = tested on: SF-539
SK-MEL-28 = tested on: SK-MEL-28
OVCAR-5 = tested on: OVCAR-5
MOLT-4 = tested on: MOLT-4
T47D = tested on: T47D
NCI-H226 = tested on: NCI-H226
UACC-62 = tested on: UACC-62
SK-MEL-5 = tested on: SK-MEL-5
MCF7 = tested on: MCF7
NCI-H23 = tested on: NCI-H23
SN12C = tested on: SN12C
SF-268 = tested on: SF-268
SF-295 = tested on: SF-295
OVCAR-3 = tested on: OVCAR-3
U-251 = tested on: U-251
PC-3 = tested on: PC-3
COLO 205 = tested on: COLO 205
HCT-15 = tested on: HCT-15
SW-620 = tested on: SW-620
A549 = tested on: A549
OVCAR-8 = tested on: OVCAR-8
OVCAR-4 = tested on: OVCAR-4
RXF 393 = tested on: RXF 393
SNB-19 = tested on: SNB-19
HT-29 = tested on: HT-29
UO-31 = tested on: UO-31
NCI-H522 = tested on: NCI-H522
HCT-116 = tested on: HCT-116
HOP-62 = tested on: HOP-62
RPMI-8226 = tested on: RPMI-8226
HOP-92 = tested on: HOP-92
BT-549 = tested on: BT-549
HCC 2998 = tested on: HCC 2998
SR = tested on: SR
DU-145 = tested on: DU-145
K562 = tested on: K562
MDA-MB-231 = tested on: MDA-MB-231
SK-MEL-2 = tested on: SK-MEL-2
A498 = tested on: A498
TK-10 = tested on: TK-10
SNB-75 = tested on: SNB-75
M14 = tested on: M14
HL-60 = tested on: HL-60
MDA-N = tested on: MDA-N
NCI-H460 = tested on: NCI-H460
ACHN = tested on: ACHN
CAKI-1 = tested on: CAKI-1
UACC-257 = tested on: UACC-257
IGROV-1 = tested on: IGROV-1
MDA-MB-435 = tested on: MDA-MB-435
NCI/ADR-RES = tested on: NCI/ADR-RES
SK-OV-3 = tested on: SK-OV-3
786-0 = tested on: 786-0

SMILES: CCCC(=O)Nc1cc(/C=C/C(=O)N2CC(CCl)c3c2cc([N+](=O)[O-])c2ccccc32)n(C)c1 (centres undefined)
- GI50 (CCRF-CEM): 3.84 µM (inactive)
- GI50 (SF-539): 56.1 µM (inactive)
- GI50 (SK-MEL-28): > 100 µM (inactive)
- GI50 (OVCAR-5): > 100 µM (inactive)
- GI50 (MOLT-4): 3.01 µM (inactive)
- GI50 (T47D): > 100 µM (inactive)
- GI50 (NCI-H226): > 100 µM (inactive)
- GI50 (UACC-62): 8.38 µM (inactive)
- GI50 (SK-MEL-5): > 47.3 µM (inactive)
- GI50 (MCF7): 13.8 µM (inactive)
- GI50 (NCI-H23): 1 µM (active)
- GI50 (SN12C): > 100 µM (inactive)
- GI50 (SF-268): > 100 µM (inactive)
- GI50 (SF-295): > 52.1 µM (inactive)
- GI50 (OVCAR-3): > 100 µM (inactive)
- GI50 (U-251): > 63.5 µM (inactive)
- GI50 (PC-3): 3.73 µM (inactive)
- GI50 (COLO 205): > 100 µM (inactive)
- GI50 (HCT-15): > 4.65 µM
- GI50 (SW-620): > 100 µM (inactive)
- GI50 (A549): 8.89 µM (inactive)
- GI50 (OVCAR-8): 16.5 µM (inactive)
- GI50 (OVCAR-4): > 100 µM (inactive)
- GI50 (RXF 393): 59.4 µM (inactive)
- GI50 (SNB-19): > 100 µM (inactive)
- GI50 (HT-29): > 100 µM (inactive)
- GI50 (UO-31): > 75.3 µM (inactive)
- GI50 (NCI-H522): > 100 µM (inactive)
- GI50 (HCT-116): 11.9 µM (inactive)
- GI50 (HOP-62): > 35.1 µM (inactive)
- GI50 (RPMI-8226): 0.579 µM (active)
- GI50 (HOP-92): > 100 µM (inactive)
- GI50 (BT-549): > 73.3 µM (inactive)
- GI50 (HCC 2998): 14.5 µM (inactive)
- GI50 (SR): 0.796 µM (active)
- GI50 (DU-145): 0.632 µM (active)
- GI50 (K562): 0.738 µM (active)
- GI50 (MDA-MB-231): > 100 µM (inactive)
- GI50 (SK-MEL-2): > 100 µM (inactive)
- GI50 (A498): 8.49 µM (inactive)
- GI50 (TK-10): > 100 µM (inactive)
- GI50 (SNB-75): 6.12 µM (inactive)
- GI50 (M14): > 100 µM (inactive)
- GI50 (HL-60): 0.767 µM (active)
- GI50 (MDA-N): > 100 µM (inactive)
- GI50 (NCI-H460): 7.57 µM (inactive)
- GI50 (ACHN): 1.32 µM (inactive)
- GI50 (CAKI-1): 47.1 µM (inactive)
- GI50 (UACC-257): > 100 µM (inactive)
- GI50 (IGROV-1): > 100 µM (inactive)
- GI50 (MDA-MB-435): > 100 µM (inactive)
- GI50 (NCI/ADR-RES): 8.93 µM (inactive)
- GI50 (SK-OV-3): > 100 µM (inactive)
- GI50 (786-0): > 60.8 µM (inactive)
